Source: article PMC11985751, “Synthesis, bioactivity, and molecular docking studies: novel arylpiperazine derivatives as potential new-resistant AR antagonists” (Frontiers in Chemistry, 2025)

Assays:
WPMY-1 = experiment: In vitro cytotoxicity, CCK-8 assay (normal prostatic epithelial cells); format: cell-based; conditions: Homo sapiens; WPMY-1 normal prostatic epithelial cells, CCK-8, mean ± SD of three trials
Procedure: (§1) PC-3 and WPMY-1 cells were cultured in Dulbecco’s modiffcation Eagle’s medium (DMEM, Invitrogen, Carlsbad, CA, United States) supplemented with 10% fetal bovine serum (FBS, Hyclone, Logan, UT, United States), 100 U/mL penicillin and 0.1 mg/mL streptomycin (Invitrogen). DU145 cells were cultured in RPMI1640 media supplemented with 10% fetal bovine serum (FBS, Hyclone), 100 U/mL penicillin and 0.1 mg/mL streptomycin (Invitrogen). LNCaP cells were cultured in F12 media supplemented with 10% fetal bovine serum (FBS, Hyclone), 100 U/mL penicillin and 0.1 mg/mL streptomycin (Invitrogen). The cells were incubated at 37°C in a humidified atmosphere with 5% CO2([Chen et al., 2025]; [Jiang et al., 2024]). […]
(§2) The compound concentrations were set at 30, 15, 7.5, 3.75, 1.88, and 0.94 μmol/L. The absorbance (A) was measured at 450 nm using a microplate reader. […] All experiments were repeated three times under identical conditions, and the mean value was taken as the final result.
(§3) The cytotoxic activity of derivatives 5–24 against three human prostate cancer cell lines (PC-3, LNCaP, and DU145) and one type of human normal prostate epithelial cells was evaluated using the CCK-8 method.

PC-3 = experiment: In vitro cytotoxicity, CCK-8 assay; format: cell-based, human; conditions: Homo sapiens, PC-3, PC-3 cells, CCK-8, mean ± SD of three trials
Procedure: as §1, §2, §3

LNCaP = experiment: In vitro cytotoxicity, CCK-8 assay; format: cell-based, human; conditions: LNCaP cells, CCK-8, mean ± SD of three trials
Procedure: PC-3 and WPMY-1 cells were cultured in Dulbecco’s modiffcation Eagle’s medium (DMEM, Invitrogen, Carlsbad, CA, United States) supplemented with 10% fetal bovine serum (FBS, Hyclone, Logan, UT, United States), 100 U/mL penicillin and 0.1 mg/mL streptomycin (Invitrogen). DU145 cells were cultured in RPMI1640 media supplemented with 10% fetal bovine serum (FBS, Hyclone), 100 U/mL penicillin and 0.1 mg/mL streptomycin (Invitrogen). LNCaP cells were cultured in F12 media supplemented with 10% fetal bovine serum (FBS, Hyclone), 100 U/mL penicillin and 0.1 mg/mL streptomycin (Invitrogen). The cells were incubated at 37°C in a humidified atmosphere with 5% CO2([Chen et al., 2025]; [Jiang et al., 2024]).
The proliferative capacity of cells was evaluated through the implementation of a Cell Counting Kit-8 (CCK-8) assay, supplied by Dojindo (Japan), to quantify cellular growth. Post-transfection, cells were dispensed into a 96-well microplate at a density of 3 × 10^3 cells per well and incubated for intervals of 0, 24, 48, 72, 96, and 120 h. Following this, 10 μL of the CCK-8 solution was introduced into each well and the plates were returned to the incubator for an additional 2-h period at 37°C under 5% CO2 conditions. Absorbance readings at 450 nm were subsequently taken using an ELISA reader manufactured by Bio Tek (United States) ([Chen et al., 2022]; [Zhou et al., 2024]).
as §2, §3

DU145 = experiment: In vitro cytotoxicity, CCK-8 assay; format: cell-based; conditions: Homo sapiens, DU-145; DU145 cells, CCK-8, mean ± SD of three trials
Procedure: as §1, §2, §3

AR-LBD (GST) = target: T1, AR-LBD (GST) (Rattus norvegicus, UniProt P15207); experiment: Fluorescence polarization, PolarScreen AR Competitor Assay, Green
T1 sequence (P15207 651-882 limits assumed): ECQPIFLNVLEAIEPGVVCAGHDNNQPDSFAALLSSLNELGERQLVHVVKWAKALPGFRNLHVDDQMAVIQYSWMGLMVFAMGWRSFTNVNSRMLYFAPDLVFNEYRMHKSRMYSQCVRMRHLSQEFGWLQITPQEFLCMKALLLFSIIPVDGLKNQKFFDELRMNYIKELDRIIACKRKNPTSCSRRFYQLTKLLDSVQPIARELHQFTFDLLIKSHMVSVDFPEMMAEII
Procedure: Brieffy, the assay entails titration of the test compound against a preformed complex of Fluormone™AL Green and the AR-LBD (GST). […] Data analysis for the ligand binding assays was performed using Prism software (GraphPad Software, Inc.).

AR = target: T2, AR (Homo sapiens, UniProt P10275); experiment: AR reporter gene (luciferase) assay, co-treatment with 1 nM R1881; format: cell-based; conditions: 10 μM compound, inhibition rate as ratio to R1881 control, read-out: AR antagonistic activity% (10 μM)
T2 sequence (P10275 1-920): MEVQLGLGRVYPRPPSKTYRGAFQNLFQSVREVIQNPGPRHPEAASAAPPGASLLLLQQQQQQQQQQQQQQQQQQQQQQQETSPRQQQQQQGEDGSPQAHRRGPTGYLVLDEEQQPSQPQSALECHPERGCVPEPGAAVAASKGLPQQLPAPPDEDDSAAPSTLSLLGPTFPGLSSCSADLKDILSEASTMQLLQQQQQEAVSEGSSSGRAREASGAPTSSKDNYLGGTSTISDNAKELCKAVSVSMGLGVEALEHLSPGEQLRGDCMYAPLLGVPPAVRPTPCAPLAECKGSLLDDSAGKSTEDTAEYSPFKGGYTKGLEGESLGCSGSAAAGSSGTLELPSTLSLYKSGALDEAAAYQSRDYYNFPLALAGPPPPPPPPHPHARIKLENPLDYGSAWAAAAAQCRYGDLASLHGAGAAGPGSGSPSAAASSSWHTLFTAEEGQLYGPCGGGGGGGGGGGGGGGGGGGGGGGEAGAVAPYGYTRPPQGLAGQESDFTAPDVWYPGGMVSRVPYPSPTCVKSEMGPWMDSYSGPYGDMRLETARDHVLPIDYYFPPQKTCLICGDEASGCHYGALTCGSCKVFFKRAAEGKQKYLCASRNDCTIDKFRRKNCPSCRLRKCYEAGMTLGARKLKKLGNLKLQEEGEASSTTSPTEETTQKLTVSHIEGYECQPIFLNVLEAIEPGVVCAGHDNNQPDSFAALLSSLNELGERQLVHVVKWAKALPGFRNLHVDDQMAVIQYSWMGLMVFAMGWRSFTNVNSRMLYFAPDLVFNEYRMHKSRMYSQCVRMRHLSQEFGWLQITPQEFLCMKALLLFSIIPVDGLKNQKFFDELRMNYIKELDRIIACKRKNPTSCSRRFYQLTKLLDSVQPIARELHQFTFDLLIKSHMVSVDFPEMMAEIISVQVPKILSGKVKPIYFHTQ
Procedure: RLUs were measured using a luminometer (GloMaxTM 96-Microplate Luminometer, Promega) and are reported as the mean ± SEM of three individual experiments. For agonists, fold of induction = LUinduced/RLUuninduced. For antagonists, % of control = 100 × RLU (agonist + antagonist)/RLU (agonist alone). All RLUs were normalized against ffreffy RLUs/Renilla RLUs. Data are expressed as EC50/IC50 values in μM, and the IC50 of […] (μM) was calculated by plotting the data using nonlinear regression analysis in Graph-Pad Prism 5 software.

Row | Compound | IC50 (WPMY-1) | IC50 (PC-3) | IC50 (LNCaP; Homo sapiens, LNCaP) | IC50 (DU145) | IC50 (AR-LBD (GST)) | activity at 10 µM (AR) | IC50 (LNCaP)
1 | Brc1ccccc1OCCc1ccc(CN2CCN(C(c3ccccc3)c3ccccc3)CC2)cc1 [Compound 14, 1-benzhydryl-4-(4-(2-(2-bromophenoxy)ethyl)benzyl)piperazine] | > 50 µM | 19.12 ± 0.16 µM | > 50 µM | > 50 µM | – | – | –
2 | Cc1ccc(OCCc2ccc(CN3CCN(C(c4ccccc4)c4ccccc4)CC3)cc2)cc1 [Compound 15, 1-benzhydryl-4-(4-(2-(p-tolyloxy)ethyl)benzyl)piperazine] | 14.72 ± 0.14 µM | 20.49 ± 0.12 µM | 9.29 ± 0.23 µM | 13.7 ± 0.14 µM | – | – | –
3 | CCOc1ccc(OCCc2ccc(CN3CCN(C(c4ccccc4)c4ccccc4)CC3)cc2)cc1 [Compound 16, 1-benzhydryl-4-(4-(2-(4-ethoxyphenoxy)ethyl)benzyl)piperazine] | > 50 µM | 13.6 ± 0.09 µM | > 50 µM | > 50 µM | – | – | –
4 | c1ccc(C(c2ccccc2)N2CCN(Cc3ccc(CCOc4cccc5c4CCCC5)cc3)CC2)cc1 [Compound 17, 1-benzhydryl-4-(4-(2-((5,6,7,8-tetrahydronaphthalen-1-yl)oxy)ethyl)benzyl)piperazine] | > 50 µM | – | – | 7.32 ± 0.08 µM | 1.14 ± 0.12 µM | > 60% | –
5 | c1ccc(C(c2ccccc2)N2CCN(Cc3ccc(CCOc4ccc5c(c4)CCCC5)cc3)CC2)cc1 [Compound 18, 1-benzhydryl-4-(4-(2-((5,6,7,8-tetrahydronaphthalen-2-yl)oxy)ethyl)benzyl)piperazine] | > 50 µM | 5.02 ± 0.12 µM | > 50 µM | 14.4 ± 0.15 µM | – | – | –
6 | Cc1ccccc1OCCc1ccc(CN2CCN(C(c3ccccc3)c3ccccc3)CC2)cc1 [Compound 19, 1-benzhydryl-4-(4-(2-(o-tolyloxy)ethyl)benzyl)piperazine] | > 50 µM | – | – | 0.87 ± 0.04 µM | 1.01 ± 0.03 µM | > 60% | –
7 | Cc1ccc(OCCc2ccc(CN3CCN(C(c4ccccc4)c4ccccc4)CC3)cc2)cc1C [Compound 20, 1-benzhydryl-4-(4-(2-(3,4-dimethylphenoxy)ethyl)benzyl)piperazine] | > 50 µM | – | – | 3.89 ± 0.14 µM | 1.66 ± 0.12 µM | > 60% | –
8 | Brc1ccc(OCCc2ccc(CN3CCN(C(c4ccccc4)c4ccccc4)CC3)cc2)cc1 [Compound 23, 1-benzhydryl-4-(4-(2-(4-bromophenoxy)ethyl)benzyl)piperazine] | > 50 µM | – | < 5 µM | 1.42 ± 0.11 µM | 1.72 ± 0.12 µM | > 60% | 3.86 ± 0.13 µM
9 | COc1ccccc1N1CCN(CC(O)COc2cccc3ccccc23)CC1 (centres unmarked) [Naftopidil, reference compound] | > 50 µM | 42.1 ± 0.79 µM | 22.4 ± 0.61 µM | 34.58 ± 0.31 µM | – | – | –
